Active and inactive are the calls of the source. The rule behind the calls is not given here.
What was measured:
[1] = molecular target: T1, Tyrosine-protein phosphatase non-receptor type 1 (Homo sapiens, UniProt P18031); experiment: Allosteric inhibition of PTP1B (unknown origin) using pNPP as substrate incubated for 30 mins by spectrophotometry
T1 sequence (P18031 whole entry): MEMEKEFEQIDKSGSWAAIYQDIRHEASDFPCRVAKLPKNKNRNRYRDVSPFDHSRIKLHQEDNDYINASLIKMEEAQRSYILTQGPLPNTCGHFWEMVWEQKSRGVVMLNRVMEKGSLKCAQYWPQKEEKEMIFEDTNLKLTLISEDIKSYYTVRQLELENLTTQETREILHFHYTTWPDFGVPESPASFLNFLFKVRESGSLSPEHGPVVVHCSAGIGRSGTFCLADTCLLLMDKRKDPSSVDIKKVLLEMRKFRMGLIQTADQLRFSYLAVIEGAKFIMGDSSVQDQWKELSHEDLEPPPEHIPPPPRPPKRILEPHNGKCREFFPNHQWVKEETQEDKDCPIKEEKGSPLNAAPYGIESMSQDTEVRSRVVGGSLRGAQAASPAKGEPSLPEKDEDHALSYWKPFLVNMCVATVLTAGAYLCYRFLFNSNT

[2] = Inhibition of PTP1B N193A/K197A mutant (unknown origin) using pNPP as substrate incubated for 30 mins by spectrophotometry; set-up: species or system Homo sapiens
[3] = molecular target: T2, Tyrosine-protein phosphatase non-receptor type 2 (Homo sapiens, UniProt P17706); experiment: Inhibition of TCPTP (unknown origin) using pNPP as substrate incubated for 30 mins by spectrophotometry
T2 sequence (P17706 whole entry): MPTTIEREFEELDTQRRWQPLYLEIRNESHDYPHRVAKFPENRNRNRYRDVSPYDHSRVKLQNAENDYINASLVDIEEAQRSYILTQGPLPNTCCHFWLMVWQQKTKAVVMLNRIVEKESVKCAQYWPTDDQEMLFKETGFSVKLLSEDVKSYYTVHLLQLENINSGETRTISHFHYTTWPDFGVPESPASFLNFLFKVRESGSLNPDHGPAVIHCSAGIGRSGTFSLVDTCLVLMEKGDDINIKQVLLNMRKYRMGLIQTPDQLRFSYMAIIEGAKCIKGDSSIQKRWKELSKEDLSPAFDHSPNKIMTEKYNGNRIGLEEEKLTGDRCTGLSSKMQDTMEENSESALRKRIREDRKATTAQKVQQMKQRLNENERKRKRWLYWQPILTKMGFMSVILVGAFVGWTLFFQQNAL

[4] = molecular target: T1, Tyrosine-protein phosphatase non-receptor type 1; experiment: Allosteric inhibition of recombinant human PTP1B (1 to 321 residues) using pNPP as substrate preincubated for 5 mins followed by substrate addition measured after 10 mins
[5] = molecular target: T3, Tyrosine-protein phosphatase non-receptor type 1 (Homo sapiens) (UniProt P18031); experiment: Induction of thermal stabilization of PTP1B in human HepG2 cells at 2.5 u incubated for 6 hrs followed by heat exposure at 51 to 65 degreeC for 4 mins by CETSA; assay type: cell-based
T3 sequence (whole entry): T1 sequence (P18031 whole entry)

HepG2 = experiment: Inhibition of insulin-resistance in insulin-resistant human HepG2 cells assessed as increase in insulin receptor phosphorylation pretreated for 24 hrs followed by compound washout and further addition of insulin measured after 20 mins by Western blot analysis; assay type: functional, cell-based; conditions: dose 0.625-2.5 µM
3T3-L1 [6] = experiment: Inhibition of insulin-resistance in insulin-resistant mouse 3T3-L1 cells assessed as increase in insulin receptor phosphorylation pretreated for 24 hrs followed by compound washout and further addition of insulin measured after 20 mins by Western blot analysis; assay type: functional, cell-based; conditions: dose 0.625-2.5 µM
3T3-L1 [7] = experiment: Induction of glucose uptake in mouse 3T3-L1 cells cultured in low glucose medium containing compound for 24 hrs; assay type: functional, cell-based; conditions: dose 0.625-2.5 µmol/L
C2C12 = experiment: Induction of glucose uptake in mouse C2C12 cells cultured in low glucose medium containing compound for 24 hrs; assay type: functional, cell-based; conditions: dose 0.625-2.5 µmol/L
[8] = Acute toxicity in Kunming mouse assessed as behavioural changes at 2000 mg/kg, po measured for 14 days; assay type: organism-based; conditions: in vivo, 336 h, time 14 day
[9] = Acute toxicity in Kunming mouse assessed as change in cell morphology of spleen at 2000 mg/kg, po measured for 14 days by H and E staining based analysis; assay type: organism-based; conditions: in vivo, 336 h, time 14 day
[10] = Toxicity in BKD db/db mouse assessed as effect on kidney weight at 40 to 80 mg/kg/day, po qd for 8 weeks; assay type: organism-based; conditions: in vivo, 1344 h, dose 40-80 mg/kg/day
[11] = Toxicity in BKD db/db mouse assessed as effect on para-metrial white adipose tissue weight at 40 to 80 mg/kg/day, po qd for 8 weeks; assay type: organism-based; conditions: in vivo, 1344 h, dose 40-80 mg/kg/day
Mus musculus [12] = experiment: Hypoglycemic activity in BKD db/db mouse assessed as decrease in blood glucose level at 40 to 80 mg/kg/day, po qd for 3 to 4 weeks; assay type: functional, organism-based; conditions: dose 40-80 mg/kg/day, time 3-4 weeks
Mus musculus [13] = experiment: Hypoglycemic activity in BKD db/db mouse assessed as decrease in blood glucose level at 40 to 80 mg/kg/day, po for 6 weeks by OGTT method; assay type: functional, organism-based; conditions: dose 40-80 mg/kg/day
Mus musculus [14] = experiment: Hypoglycemic activity in BKD db/db mouse assessed as increase in insulin receptor phosphorylation in skeletal muscle at 40 to 80 mg/kg/day, po for 8 weeks by Western blot analysis; assay type: functional, organism-based; conditions: dose 40-80 mg/kg/day
Mus musculus [15] = experiment: Hypoglycemic activity in BKD db/db mouse assessed as increase in insulin receptor phosphorylation in epididymal white adipose tissue at 40 to 80 mg/kg/day, po for 8 weeks by Western blot analysis; assay type: functional, organism-based; conditions: dose 40-80 mg/kg/day
Mus musculus [16] = experiment: Hypoglycemic activity in BKD db/db mouse assessed as increase in AKT phosphorylation in skeletal muscle at 40 to 80 mg/kg/day, po for 8 weeks by Western blot analysis; assay type: functional, organism-based; conditions: dose 40-80 mg/kg/day
Mus musculus [17] = experiment: Hypoglycemic activity in BKD db/db mouse assessed as reduction in lipid droplet accumulation in liver at 40 to 80 mg/kg/day, po for 8 weeks by H and E staining based analysis; assay type: functional, organism-based; conditions: dose 40-80 mg/kg/day
Mus musculus [18] = experiment: Hypoglycemic activity in BKD db/db mouse assessed as regular arrangement of liver cells at 40 to 80 mg/kg/day, po for 8 weeks by H and E staining based analysis; assay type: functional, organism-based; conditions: dose 40-80 mg/kg/day

Structure (SMILES): CCOc1ccc(Oc2ccc(C(=O)/C=C/c3cc(O)c(O)c(Br)c3Br)cc2)cc1
- IC50 [1]: 1.06 µM
- IC50 [2]: 14.8 µM
- IC50 [3]: 15.8 µM
- Ki [4]: 2.33 µM
- Activity [5]: Active
- inhibition (HepG2): Dose-dependent-effect
- inhibition (3T3-L1 [6]): Dose-dependent-effect
- Activity (3T3-L1 [7]): Dose-dependent-effect
- Activity (C2C12): Dose-dependent-effect
- Activity [8]: Non-toxic
- Activity [9]: Non-toxic
- Activity [10]: Non-toxic
- Activity [11]: Non-toxic
- Activity (Mus musculus [12]): Active
- Activity (Mus musculus [13]): Active
- Activity (Mus musculus [14]): Active
- Activity (Mus musculus [15]): Active
- Activity (Mus musculus [16]): Active
- Activity (Mus musculus [17]): Active
- Activity (Mus musculus [18]): Active
